# Laboratory results as given in ChEMBL document CHEMBL1131451, “Structural and functional analyses of benzamidine-based inhibitors in complex with trypsin: implications for the inhibition of factor Xa, tPA, and urokinase” (J Med Chem, 1998).
# Columns and labels:
# [1] = target: Urokinase-type plasminogen activator (Homo sapiens, UniProt P00749); test: Inhibitory activity against human urokinase plasminogen activator expressed as dissociation constant
# Prothrombin = Prothrombin (Bos taurus, UniProt P00735); test: Inhibitory activity against bovine thrombin expressed as dissociation constant
# Coagulation factor X = Coagulation factor X (Bos taurus, UniProt P00743); test: Inhibitory activity against bovine coagulation factor X expressed as dissociation constant
# [2] = target: Tissue-type plasminogen activator (Homo sapiens, UniProt P00750); test: Inhibitory activity against human tissue-type plasminogen activator expressed as dissociation constant
# Serine protease 1 = target: T1, Serine protease 1 (Bos taurus, UniProt P00760); test: Inhibitory activity against bovine trypsin expressed as dissociation constant
# T1 sequence (P00760 whole entry): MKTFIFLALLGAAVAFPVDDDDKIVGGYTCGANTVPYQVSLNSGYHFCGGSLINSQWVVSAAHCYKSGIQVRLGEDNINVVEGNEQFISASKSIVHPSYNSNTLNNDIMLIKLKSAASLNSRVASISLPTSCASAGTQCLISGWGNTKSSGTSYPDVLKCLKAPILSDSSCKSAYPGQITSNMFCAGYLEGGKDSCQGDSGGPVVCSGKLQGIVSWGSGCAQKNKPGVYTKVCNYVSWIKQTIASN
# Sequence of Coagulation factor X (P00743 41-180 limits assumed): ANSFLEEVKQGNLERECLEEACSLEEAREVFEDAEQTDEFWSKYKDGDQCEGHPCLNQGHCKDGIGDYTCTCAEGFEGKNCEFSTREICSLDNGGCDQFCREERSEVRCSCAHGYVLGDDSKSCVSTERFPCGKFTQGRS
# Sequence of Coagulation factor X (P00743 234-492 limits assumed): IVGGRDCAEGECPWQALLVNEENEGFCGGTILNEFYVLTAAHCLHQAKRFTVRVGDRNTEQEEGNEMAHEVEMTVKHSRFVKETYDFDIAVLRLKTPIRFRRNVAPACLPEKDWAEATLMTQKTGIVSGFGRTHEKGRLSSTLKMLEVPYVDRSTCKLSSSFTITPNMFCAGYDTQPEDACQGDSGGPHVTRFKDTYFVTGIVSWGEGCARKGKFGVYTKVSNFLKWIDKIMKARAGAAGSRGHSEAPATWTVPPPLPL
# Sequence of Tissue-type plasminogen activator (P00750 whole entry): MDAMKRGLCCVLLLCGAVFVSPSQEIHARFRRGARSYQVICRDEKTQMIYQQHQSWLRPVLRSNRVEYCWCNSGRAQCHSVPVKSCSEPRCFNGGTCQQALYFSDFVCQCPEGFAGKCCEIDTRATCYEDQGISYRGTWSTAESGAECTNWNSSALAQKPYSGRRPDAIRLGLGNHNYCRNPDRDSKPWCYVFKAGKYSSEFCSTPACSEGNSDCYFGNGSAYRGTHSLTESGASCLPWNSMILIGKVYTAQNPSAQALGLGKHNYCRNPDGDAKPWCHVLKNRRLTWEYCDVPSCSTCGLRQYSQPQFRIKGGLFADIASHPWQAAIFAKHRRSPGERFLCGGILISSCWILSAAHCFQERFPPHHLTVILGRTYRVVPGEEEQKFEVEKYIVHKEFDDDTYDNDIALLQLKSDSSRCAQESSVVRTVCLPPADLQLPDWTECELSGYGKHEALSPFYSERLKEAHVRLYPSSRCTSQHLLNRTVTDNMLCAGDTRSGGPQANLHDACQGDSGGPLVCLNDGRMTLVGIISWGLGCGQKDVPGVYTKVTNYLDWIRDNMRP
SMILES,Ki [1] [µM],Ki (Prothrombin) [µM],Ki (Coagulation factor X) [µM],Ki [2] [µM],Ki (Serine protease 1) [µM]
CC(C)c1cc(C(C)C)c(S(=O)(=O)NC(Cc2cccc(C(N)N)c2)C(=O)N2CCN(C(=O)OCc3ccccc3)CC2)c(C(C)C)c1 (configuration not stated),1.4,1.1,2.7,0.95,0.2
CC1CCN(C(=O)C(Cc2cccc(C(=N)N)c2)NC(=O)OC(C)(C)C)CC1 (configuration not stated),56,,64,,
COC(=O)C1CCCN(C(=O)C(Cc2cccc(C(=N)N)c2)NS(=O)(=O)c2ccc3ccccc3c2)C1 (configuration not stated),26,0.15,18,,
COC(=O)C(Cc1cccc(C(N)N)c1)NC(=O)CNS(=O)(=O)c1ccc(C)cc1 (configuration not stated),78,3.9,,23,5.7
CC(C)c1cc(C(C)C)c(S(=O)(=O)NC(Cc2cccc(C(N)N)c2)C(=O)N2CCCC(C(=O)NCc3ccccc3)C2)c(C(C)C)c1 (configuration not stated),1.6,1.8,2.5,0.98,0.46
COC(=O)C1CCN(C(=O)C(Cc2cccc(C(=N)N)c2)NS(=O)(=O)c2ccc3ccccc3c2)CC1 (configuration not stated),9.3,0.017,43,,
CCOC(=O)N1CCN(C(=O)C(Cc2cccc(C(N)N)c2)NS(=O)(=O)c2c(C(C)C)cc(C(C)C)cc2C(C)C)CC1 (configuration not stated),0.41,0.49,1.7,0.57,0.037
NC(N)c1ccc(/C=C2\CCCC/C(=C\c3ccc(C(N)N)cc3)C2=O)cc1,3.4,0.32,0.013,0.035,0.09
CC1CCN(C(=O)C(N)Cc2cccc(C(=N)N)c2)CC1 (configuration not stated),800,,230,,
CC1CCN(C(=O)C(Cc2cccc(C(=N)N)c2)NS(=O)(=O)c2ccc3ccccc3c2)CC1 (configuration not stated),31,,,,
N=C(N)c1ccccc1 [BENZAMIDINE],,890,160,,

# Further lines, results first:
Ki [1] [µM],Ki (Prothrombin) [µM],Ki (Coagulation factor X) [µM],Ki [2] [µM],Ki (Serine protease 1) [µM],SMILES
38,,,,,N=C(N)c1cccc(CC(NS(=O)(=O)c2ccc3ccccc3c2)C(=O)N2CCCCC2)c1 (configuration not stated)
41,,,,,N=C(N)c1cccc(CC(NS(=O)(=O)c2ccc3ccccc3c2)C(=O)N2CCN(c3ccccc3)CC2)c1 (configuration not stated)
2,0.075,2,,,CC1CCN(C(=O)C(Cc2cccc(C(=N)N)c2)NS(=O)(=O)c2c(C(C)C)cc(C(C)C)cc2C(C)C)CC1 (configuration not stated)
35,0.13,32,,0.53,CC1CCCN(C(=O)C(Cc2cccc(C(=N)N)c2)NS(=O)(=O)c2ccc3ccccc3c2)C1 (configuration not stated)
48,,,,,N=C(N)c1cccc(CC(NS(=O)(=O)c2ccc3ccccc3c2)C(=O)N2CCNCC2)c1 (configuration not stated)
> 1000,9.6,3,69,9.2,CNC(=O)C(Cc1cccc(C(N)N)c1)NC(=O)CNS(=O)(=O)c1ccc2ccccc2c1 (configuration not stated)
> 1000,0.006,,70,,NC(N)c1ccc(CC(NC(=O)CNS(=O)(=O)c2ccc3ccccc3c2)C(=O)N2CCCCC2)cc1 (configuration not stated)
55,0.34,15,120,,Cc1ccc(S(=O)(=O)NC(Cc2cccc(C(N)N)c2)C(=O)N2CCCCC2)cc1 (configuration not stated)
34,,42,,,CC1CCN(C(=O)C(Cc2cccc(C(=N)N)c2)NS(=O)(=O)c2cccc3ccccc23)CC1 (configuration not stated)
40,,2.3,,,CC1CCN(C(=O)C(Cc2cccc(C(=N)N)c2)NS(=O)(=O)c2ccc3c(c2)C(=O)c2ccccc2C3=O)CC1 (configuration not stated)
4.5,0.22,18,24,0.0084,CCOC(=O)C1CCN(C(=O)C(Cc2cccc(C(=N)N)c2)NS(=O)(=O)c2ccc3ccccc3c2)CC1 (configuration not stated)
16,,95,,,Cc1cc(C)c(S(=O)(=O)NC(Cc2cccc(C(=N)N)c2)C(=O)N2CCC(C)CC2)c(C)c1 (configuration not stated)
25,,71,,,Cc1ccc(S(=O)(=O)NC(Cc2cccc(C(=N)N)c2)C(=O)N2CCC(C)CC2)cc1 (configuration not stated)
49,1.2,0.24,33,3.7,CC(C)OC(=O)C(Cc1cccc(C(N)N)c1)NC(=O)CNS(=O)(=O)c1ccc2ccccc2c1 (configuration not stated)
